In ChEMBL document CHEMBL1201862, “PubChem BioAssay data set” (2004):
The source made the active and inactive calls.

How the values were obtained:
[1] = target: Arf-GAP with SH3 domain, ANK repeat and PH domain-containing protein 1 (Homo sapiens, UniProt Q9ULH1); type: functional;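 further: biochemical fluorescence polarization dose–response screen measuring inhibition of ASAP1; ASAP1 GAP domain stimulating GTP hydrolysis by truncated human ARF1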
[2] = target: T1, Endoribonuclease toxin MazF (Escherichia coli K-12, UniProt P0AE70); assay: fluorescent RNA oligo signal without MazF, dose response, counter-screen for MazEF activator project, biochemical, fluorescence, single-stranded RNase substrate (AID 588502); type: functional
T1 sequence (P0AE70 whole entry): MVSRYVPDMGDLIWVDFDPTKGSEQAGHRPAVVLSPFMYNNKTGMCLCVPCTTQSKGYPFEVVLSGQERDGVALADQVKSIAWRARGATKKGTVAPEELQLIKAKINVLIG

Hexokinase HKDC1 = target: T2, Hexokinase HKDC1 (Homo sapiens, UniProt Q2TB90); assay: HKDC1 hexokinase activators, dose response, biochemical, W721R variant (AID 504730); type: functional
T2 sequence (Q2TB90 whole entry): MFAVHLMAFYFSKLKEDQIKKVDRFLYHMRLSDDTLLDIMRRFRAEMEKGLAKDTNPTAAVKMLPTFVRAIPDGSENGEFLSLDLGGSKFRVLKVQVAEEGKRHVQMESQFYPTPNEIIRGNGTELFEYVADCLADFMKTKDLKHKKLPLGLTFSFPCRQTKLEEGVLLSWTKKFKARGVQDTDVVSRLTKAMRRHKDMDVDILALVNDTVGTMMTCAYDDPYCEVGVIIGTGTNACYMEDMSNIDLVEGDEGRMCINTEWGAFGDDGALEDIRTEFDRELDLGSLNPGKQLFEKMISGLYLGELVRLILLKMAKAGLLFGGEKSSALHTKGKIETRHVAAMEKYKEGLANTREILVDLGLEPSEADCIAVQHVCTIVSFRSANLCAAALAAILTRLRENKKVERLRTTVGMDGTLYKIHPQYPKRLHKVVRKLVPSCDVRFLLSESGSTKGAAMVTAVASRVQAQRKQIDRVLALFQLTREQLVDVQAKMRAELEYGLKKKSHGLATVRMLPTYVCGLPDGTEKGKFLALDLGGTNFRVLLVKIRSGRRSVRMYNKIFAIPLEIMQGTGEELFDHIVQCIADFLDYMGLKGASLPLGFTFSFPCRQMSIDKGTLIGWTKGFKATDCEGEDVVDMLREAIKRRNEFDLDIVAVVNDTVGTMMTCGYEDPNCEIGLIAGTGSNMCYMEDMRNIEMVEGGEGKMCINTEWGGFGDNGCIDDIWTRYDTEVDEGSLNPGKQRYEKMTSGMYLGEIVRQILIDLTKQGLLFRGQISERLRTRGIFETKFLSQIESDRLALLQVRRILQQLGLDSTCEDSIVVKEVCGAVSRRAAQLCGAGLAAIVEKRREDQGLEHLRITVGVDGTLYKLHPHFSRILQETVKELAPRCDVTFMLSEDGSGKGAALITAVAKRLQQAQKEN

[3] = target: T1, Endoribonuclease toxin MazF; assay: MazF toxin RNase activators, dose response, biochemical, fluorescence, single-stranded RNA substrate, uHTS hits (AID 588481); type: functional
[4] = target: T3, Zinc finger protein mex-5 (Caenorhabditis elegans, UniProt Q9XUB2); assay: MEX-5/TCR-2 RNA interaction inhibitors, dose response, biochemical, C. elegans, fluorescence polarization (AID 1960)
T3 sequence (Q9XUB2 whole entry): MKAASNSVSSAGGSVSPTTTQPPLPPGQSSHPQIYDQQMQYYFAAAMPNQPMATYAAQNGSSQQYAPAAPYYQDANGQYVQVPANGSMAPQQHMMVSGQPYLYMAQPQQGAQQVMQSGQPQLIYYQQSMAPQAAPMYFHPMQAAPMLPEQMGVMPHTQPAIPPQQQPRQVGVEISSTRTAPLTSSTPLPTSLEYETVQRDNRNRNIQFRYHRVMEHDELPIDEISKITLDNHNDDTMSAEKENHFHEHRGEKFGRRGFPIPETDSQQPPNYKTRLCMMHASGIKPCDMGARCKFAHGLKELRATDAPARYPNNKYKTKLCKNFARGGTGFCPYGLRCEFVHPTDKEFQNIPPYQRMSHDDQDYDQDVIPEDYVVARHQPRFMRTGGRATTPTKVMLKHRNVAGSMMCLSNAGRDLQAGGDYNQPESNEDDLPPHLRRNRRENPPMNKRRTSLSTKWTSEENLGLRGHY

[5] = target: T4, Type-1 angiotensin II receptor (Homo sapiens, UniProt P30556); assay: AT1 receptor antagonists, dose response, selectivity assay for APJ receptor antagonist project, cell-based, uHTS hits (AID 463214); type: functional;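 further: antagonist potency against angiotensin II stimulated AT1 response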
T4 sequence (P30556 whole entry): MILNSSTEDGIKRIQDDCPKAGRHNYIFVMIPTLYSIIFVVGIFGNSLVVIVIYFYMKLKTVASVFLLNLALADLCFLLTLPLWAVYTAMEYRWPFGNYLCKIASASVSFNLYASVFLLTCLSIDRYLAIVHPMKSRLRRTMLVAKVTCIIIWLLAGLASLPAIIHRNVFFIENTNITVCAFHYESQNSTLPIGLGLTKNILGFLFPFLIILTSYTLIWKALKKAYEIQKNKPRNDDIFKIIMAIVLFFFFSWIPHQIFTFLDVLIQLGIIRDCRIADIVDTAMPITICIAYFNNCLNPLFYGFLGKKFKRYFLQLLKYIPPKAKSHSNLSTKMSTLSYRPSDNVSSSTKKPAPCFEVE

Beta-galactosidase = Beta-galactosidase (Escherichia coli, UniProt Q8VNN2); assay: PubChem AID 485352; type: functional
Vero = assay: cells; type: functional; details: Chlorocebus sabaeus
Hexokinase-1 = target: T5, Hexokinase-1 (Homo sapiens, UniProt P19367); assay: hexokinase 1 activators, dose response, selectivity assay for HKDC1 activator project, biochemical (AID 504762); type: functional
T5 sequence (P19367 whole entry): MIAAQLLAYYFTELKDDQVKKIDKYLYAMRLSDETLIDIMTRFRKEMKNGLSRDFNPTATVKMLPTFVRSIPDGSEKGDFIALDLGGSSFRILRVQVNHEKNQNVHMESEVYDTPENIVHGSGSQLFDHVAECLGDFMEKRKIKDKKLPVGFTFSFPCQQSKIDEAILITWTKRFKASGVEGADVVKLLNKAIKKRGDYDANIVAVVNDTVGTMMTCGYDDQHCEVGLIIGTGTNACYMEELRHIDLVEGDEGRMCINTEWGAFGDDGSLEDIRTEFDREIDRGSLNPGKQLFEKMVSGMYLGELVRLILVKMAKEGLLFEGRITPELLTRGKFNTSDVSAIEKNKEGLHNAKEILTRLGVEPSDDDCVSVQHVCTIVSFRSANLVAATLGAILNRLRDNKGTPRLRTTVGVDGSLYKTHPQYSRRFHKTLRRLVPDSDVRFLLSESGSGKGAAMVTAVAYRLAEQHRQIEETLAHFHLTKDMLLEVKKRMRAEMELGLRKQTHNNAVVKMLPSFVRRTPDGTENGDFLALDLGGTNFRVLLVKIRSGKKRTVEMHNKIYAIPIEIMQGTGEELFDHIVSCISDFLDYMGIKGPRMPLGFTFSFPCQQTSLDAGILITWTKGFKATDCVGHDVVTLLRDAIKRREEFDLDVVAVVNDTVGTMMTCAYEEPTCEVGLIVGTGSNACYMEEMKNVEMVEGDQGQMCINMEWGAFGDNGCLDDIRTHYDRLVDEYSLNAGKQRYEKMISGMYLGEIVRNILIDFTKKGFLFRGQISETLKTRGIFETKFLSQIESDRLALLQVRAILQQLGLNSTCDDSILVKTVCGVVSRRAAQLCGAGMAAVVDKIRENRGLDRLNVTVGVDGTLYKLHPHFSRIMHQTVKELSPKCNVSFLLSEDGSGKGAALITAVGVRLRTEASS

[6] = target: Hepatocyte nuclear factor 4-alpha (Homo sapiens, UniProt P41235); type: functional, cell-based;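 further: biochemical luminescence-based dose-response counterscreen measuring inhibition of HNF4 dimerization, run alongside a screen for blockers of ABHD5–perilipin-5 interaction; split luciferase complementation of HNF4 fusion proteins in cell lysate measuring dimerization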
[7] = target: T6, RNA-binding protein pos-1 (Caenorhabditis elegans, UniProt G5EF15); assay: inhibitors of POS-1/mex-3 RNA binding, dose response, biochemical, fluorescence polarization (AID 1964);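 further: purified POS-1 fused to maltose binding protein made in E. coli; potency of compounds blocking POS-1 binding to fluorescent RNA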
T6 sequence (G5EF15 whole entry): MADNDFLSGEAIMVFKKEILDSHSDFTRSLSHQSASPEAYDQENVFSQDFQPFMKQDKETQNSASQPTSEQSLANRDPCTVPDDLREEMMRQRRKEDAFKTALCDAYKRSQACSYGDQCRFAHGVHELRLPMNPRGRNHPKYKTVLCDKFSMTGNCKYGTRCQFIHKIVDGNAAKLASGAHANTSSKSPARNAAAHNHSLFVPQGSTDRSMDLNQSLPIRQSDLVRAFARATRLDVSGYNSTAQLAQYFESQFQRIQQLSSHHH

Mu-type opioid receptor = Mu-type opioid receptor (Homo sapiens, UniProt P35372); type: functional, cell-based;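 further: U2OS cells with beta-arrestin recruitment to OPRM1 by beta-gal complementation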
[8] = target: 5-hydroxytryptamine receptor 2A (Mus musculus, UniProt P35363); type: functional, cell-based;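 further: CHO-K1 cells with tagged receptor and beta-arrestin; agonist potency measured as compound-induced activation of the receptor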
[9] = AlphaScreen signal interference compounds, dose response, artefact control for ARNT-TACC3 interaction inhibitor project, biochemical, luminescence, cherry-pick (AID 651705); type: functional;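 further: AlphaScreen bead proximity signal that flags compounds interfering with the detection technology; potency reflects signal decrease which marks the compound as an assay artifact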
[10] = intracellular Trypanosoma cruzi inhibitors in host cells – cell-based, plate reader, cherry-pick samples, set 3, dose response (AID 651818); type: functional;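 further: compounds incubated with infected cells for about four days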
[11] = NIH/3T3 fibroblast cytotoxicity, dose response, cytotoxicity control for T. cruzi growth inhibitor project, cell-based, cherry-pick samples, set 2 (AID 651817); type: functional; details: NIH3T3
[12] = target: T7, Low molecular weight phosphotyrosine protein phosphatase (Homo sapiens, UniProt P24666); type: functional; details: read-out: IC50_Mean
[13] = target: DNA (cytosine-5)-methyltransferase 1 (Homo sapiens, UniProt P26358); assay: DNMT1 methyltransferase inhibitors, confirmation, biochemical, fluorescent molecular beacon (AID 602386); type: functional
[14] = target: T7, Low molecular weight phosphotyrosine protein phosphatase; type: functional; details: read-out: IC50_Mean; remark: listed apart in the source
[15] = target: Dual specificity protein phosphatase 3 (Homo sapiens, UniProt P51452); assay: VHR phosphatase inhibition, dose response, selectivity assay for STEP inhibitor project, biochemical (AID 602374); type: functional; details: read-out: IC50_Mean
[16] = target: Tyrosine-protein phosphatase non-receptor type 5 (Homo sapiens, UniProt P54829); assay: STEP phosphatase inhibitors, confirmation, biochemical, fluorescence intensity, uHTS hits (AID 602372); type: functional; details: read-out: IC50_Mean
[17] = target: T8, Tyrosine-protein phosphatase non-receptor type 22 (Homo sapiens, UniProt Q9Y2R2); assay: PTPN22 phosphatase inhibition, dose response, selectivity assay for STEP inhibitor project, biochemical (AID 624241); type: functional
T8 sequence (Q9Y2R2 whole entry): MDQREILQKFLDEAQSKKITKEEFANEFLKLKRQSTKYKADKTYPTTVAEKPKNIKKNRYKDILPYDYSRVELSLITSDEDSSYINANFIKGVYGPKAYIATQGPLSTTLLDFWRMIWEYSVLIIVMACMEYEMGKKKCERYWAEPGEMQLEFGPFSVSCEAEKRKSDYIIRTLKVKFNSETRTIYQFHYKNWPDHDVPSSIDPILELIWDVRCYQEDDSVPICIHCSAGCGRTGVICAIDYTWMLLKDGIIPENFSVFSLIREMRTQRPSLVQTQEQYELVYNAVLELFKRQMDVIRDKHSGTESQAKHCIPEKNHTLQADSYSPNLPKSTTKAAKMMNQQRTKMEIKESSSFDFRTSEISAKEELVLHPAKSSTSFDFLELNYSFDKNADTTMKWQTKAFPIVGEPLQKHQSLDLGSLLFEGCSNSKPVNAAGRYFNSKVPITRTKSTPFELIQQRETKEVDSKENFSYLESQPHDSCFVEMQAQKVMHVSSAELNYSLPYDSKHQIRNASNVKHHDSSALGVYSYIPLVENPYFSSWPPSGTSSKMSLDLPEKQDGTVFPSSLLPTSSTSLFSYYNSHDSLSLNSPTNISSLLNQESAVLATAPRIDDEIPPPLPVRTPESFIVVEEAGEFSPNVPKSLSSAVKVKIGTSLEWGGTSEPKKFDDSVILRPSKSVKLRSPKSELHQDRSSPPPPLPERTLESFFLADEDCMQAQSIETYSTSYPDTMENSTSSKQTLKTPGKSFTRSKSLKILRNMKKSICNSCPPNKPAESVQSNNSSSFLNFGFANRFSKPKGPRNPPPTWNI

[18] = target: Tyrosine-protein phosphatase non-receptor type 11 (Homo sapiens, UniProt Q06124); assay: SHP2 phosphatase inhibition, dose response, selectivity assay for STEP inhibitor project, biochemical (AID 602367); type: functional; details: read-out: IC50_Mean
Sequence of Tyrosine-protein phosphatase non-receptor type 11 (Q06124 whole entry): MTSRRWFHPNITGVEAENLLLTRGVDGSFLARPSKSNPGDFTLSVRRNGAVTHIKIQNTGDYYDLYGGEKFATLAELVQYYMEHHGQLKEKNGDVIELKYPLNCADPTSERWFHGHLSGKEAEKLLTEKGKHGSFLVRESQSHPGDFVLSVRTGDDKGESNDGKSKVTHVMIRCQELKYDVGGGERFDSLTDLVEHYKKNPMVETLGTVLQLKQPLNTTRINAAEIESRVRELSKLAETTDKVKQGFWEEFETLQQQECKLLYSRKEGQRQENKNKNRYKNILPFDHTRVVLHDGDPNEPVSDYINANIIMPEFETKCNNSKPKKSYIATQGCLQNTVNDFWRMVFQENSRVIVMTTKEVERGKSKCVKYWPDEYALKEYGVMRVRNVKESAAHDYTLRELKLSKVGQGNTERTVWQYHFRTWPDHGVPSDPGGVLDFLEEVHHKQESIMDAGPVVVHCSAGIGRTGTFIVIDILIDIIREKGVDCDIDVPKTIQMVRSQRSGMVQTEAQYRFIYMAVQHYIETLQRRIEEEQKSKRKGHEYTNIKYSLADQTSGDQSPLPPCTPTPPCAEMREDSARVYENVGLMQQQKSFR

T7 sequence (P24666 whole entry): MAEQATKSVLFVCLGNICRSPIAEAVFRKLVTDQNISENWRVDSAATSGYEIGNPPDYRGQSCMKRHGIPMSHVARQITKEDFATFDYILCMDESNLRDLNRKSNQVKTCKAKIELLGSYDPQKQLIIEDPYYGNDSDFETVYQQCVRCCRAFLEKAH
Sequence of Dual specificity protein phosphatase 3 (P51452 whole entry): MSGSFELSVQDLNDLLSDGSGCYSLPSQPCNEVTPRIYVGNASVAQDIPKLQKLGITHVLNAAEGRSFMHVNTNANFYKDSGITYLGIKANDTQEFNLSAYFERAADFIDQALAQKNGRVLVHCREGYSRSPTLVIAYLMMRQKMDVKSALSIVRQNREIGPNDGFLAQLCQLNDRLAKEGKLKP
Sequence of Arf-GAP with SH3 domain, ANK repeat and PH domain-containing protein 1 (Q9ULH1 whole entry, the tested form may be a part): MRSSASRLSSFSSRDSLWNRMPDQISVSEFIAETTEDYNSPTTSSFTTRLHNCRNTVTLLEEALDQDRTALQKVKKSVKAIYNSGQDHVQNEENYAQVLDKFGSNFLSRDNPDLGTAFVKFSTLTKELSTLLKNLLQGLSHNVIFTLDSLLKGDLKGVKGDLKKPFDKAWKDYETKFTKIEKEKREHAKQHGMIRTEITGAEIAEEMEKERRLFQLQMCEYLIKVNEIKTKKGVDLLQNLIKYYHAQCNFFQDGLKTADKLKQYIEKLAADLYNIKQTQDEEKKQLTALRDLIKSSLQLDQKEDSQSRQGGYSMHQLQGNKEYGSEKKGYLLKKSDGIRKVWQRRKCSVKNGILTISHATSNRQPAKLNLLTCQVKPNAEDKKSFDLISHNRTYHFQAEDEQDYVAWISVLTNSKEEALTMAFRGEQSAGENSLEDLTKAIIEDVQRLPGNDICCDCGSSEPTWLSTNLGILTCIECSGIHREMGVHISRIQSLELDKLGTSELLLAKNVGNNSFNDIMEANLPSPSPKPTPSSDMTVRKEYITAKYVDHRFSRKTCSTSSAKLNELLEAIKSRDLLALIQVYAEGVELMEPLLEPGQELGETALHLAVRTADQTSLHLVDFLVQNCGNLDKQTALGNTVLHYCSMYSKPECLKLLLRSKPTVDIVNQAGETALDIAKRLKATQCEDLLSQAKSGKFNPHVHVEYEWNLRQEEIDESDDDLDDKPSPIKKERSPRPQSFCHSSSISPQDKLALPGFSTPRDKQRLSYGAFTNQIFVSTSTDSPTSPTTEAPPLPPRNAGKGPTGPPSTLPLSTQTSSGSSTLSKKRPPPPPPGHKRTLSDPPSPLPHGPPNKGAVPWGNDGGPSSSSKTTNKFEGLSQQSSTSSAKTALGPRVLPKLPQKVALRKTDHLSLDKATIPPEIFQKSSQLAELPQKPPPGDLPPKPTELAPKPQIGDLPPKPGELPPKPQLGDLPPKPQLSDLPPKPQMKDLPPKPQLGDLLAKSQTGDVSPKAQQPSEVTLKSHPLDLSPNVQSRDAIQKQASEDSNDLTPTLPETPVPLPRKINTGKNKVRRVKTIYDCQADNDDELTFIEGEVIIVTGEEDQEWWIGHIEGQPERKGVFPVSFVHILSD
Sequence of Beta-galactosidase (Q8VNN2 whole entry): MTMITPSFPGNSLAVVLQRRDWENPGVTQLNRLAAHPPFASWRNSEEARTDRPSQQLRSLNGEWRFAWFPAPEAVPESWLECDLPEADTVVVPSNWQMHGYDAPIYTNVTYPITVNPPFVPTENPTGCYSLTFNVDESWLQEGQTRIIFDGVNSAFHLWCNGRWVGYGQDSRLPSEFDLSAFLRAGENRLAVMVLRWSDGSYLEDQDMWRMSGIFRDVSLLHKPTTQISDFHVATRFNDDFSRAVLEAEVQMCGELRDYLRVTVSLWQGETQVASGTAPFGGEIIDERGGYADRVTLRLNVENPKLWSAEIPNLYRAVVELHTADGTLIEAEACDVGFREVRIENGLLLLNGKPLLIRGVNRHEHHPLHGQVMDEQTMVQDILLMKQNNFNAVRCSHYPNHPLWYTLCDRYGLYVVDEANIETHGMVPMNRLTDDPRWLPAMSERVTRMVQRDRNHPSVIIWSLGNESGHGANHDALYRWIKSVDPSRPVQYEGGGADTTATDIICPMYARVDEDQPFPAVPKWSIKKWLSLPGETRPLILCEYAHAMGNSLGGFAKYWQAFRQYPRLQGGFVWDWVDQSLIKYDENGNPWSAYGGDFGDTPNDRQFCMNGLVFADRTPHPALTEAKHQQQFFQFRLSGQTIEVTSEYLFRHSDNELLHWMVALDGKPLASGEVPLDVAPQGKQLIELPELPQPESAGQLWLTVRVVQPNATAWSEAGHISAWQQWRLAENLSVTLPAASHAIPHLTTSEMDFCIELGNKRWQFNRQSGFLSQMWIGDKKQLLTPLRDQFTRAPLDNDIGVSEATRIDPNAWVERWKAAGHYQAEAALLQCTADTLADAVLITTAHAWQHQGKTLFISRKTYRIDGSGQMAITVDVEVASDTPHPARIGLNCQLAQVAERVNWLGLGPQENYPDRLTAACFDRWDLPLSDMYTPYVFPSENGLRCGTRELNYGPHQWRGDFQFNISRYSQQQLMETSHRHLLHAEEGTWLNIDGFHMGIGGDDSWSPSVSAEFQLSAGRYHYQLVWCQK
Sequence of Tyrosine-protein phosphatase non-receptor type 5 (P54829 whole entry): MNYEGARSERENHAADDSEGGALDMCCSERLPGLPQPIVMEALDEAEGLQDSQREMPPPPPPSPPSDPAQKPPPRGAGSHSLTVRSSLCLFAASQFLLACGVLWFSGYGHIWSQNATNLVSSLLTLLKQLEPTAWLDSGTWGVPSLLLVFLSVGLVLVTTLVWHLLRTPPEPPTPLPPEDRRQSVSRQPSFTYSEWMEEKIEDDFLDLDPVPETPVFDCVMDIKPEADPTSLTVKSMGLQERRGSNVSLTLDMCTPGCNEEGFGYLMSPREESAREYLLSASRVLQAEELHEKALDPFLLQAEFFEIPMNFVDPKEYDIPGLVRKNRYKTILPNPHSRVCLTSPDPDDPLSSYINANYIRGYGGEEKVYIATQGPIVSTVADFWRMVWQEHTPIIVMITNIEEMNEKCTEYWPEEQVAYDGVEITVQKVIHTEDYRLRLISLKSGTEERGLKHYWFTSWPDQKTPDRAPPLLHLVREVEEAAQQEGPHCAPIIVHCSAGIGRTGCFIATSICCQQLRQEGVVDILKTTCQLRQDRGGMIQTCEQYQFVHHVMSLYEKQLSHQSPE
Sequence of 5-hydroxytryptamine receptor 2A (P35363 whole entry): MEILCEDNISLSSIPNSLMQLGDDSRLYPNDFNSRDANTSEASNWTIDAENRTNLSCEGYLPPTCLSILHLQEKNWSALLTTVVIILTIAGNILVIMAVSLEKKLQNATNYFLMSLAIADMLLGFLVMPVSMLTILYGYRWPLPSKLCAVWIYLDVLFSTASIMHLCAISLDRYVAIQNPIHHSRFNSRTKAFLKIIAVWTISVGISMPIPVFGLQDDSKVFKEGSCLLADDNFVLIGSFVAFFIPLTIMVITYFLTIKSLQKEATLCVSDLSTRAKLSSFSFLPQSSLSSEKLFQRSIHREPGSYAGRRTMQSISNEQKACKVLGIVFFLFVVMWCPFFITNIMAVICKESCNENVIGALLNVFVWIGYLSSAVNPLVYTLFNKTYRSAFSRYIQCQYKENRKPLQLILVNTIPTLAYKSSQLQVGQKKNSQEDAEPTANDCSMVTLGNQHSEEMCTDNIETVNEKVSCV
Sequence of Hepatocyte nuclear factor 4-alpha (P41235 whole entry, the tested form may be a part): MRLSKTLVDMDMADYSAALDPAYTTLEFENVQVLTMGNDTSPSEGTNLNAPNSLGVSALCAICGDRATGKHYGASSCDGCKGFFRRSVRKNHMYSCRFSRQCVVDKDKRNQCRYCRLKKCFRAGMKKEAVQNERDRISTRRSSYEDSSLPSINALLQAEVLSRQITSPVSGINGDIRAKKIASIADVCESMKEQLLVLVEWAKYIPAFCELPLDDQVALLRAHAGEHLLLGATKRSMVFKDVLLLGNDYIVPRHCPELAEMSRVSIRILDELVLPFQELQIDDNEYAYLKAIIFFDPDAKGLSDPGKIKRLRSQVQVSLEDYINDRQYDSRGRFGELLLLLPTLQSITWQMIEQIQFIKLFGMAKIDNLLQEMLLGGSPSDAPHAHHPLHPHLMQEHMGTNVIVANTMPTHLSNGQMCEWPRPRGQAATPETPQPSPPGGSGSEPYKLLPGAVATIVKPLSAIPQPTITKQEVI
Sequence of Mu-type opioid receptor (P35372 whole entry): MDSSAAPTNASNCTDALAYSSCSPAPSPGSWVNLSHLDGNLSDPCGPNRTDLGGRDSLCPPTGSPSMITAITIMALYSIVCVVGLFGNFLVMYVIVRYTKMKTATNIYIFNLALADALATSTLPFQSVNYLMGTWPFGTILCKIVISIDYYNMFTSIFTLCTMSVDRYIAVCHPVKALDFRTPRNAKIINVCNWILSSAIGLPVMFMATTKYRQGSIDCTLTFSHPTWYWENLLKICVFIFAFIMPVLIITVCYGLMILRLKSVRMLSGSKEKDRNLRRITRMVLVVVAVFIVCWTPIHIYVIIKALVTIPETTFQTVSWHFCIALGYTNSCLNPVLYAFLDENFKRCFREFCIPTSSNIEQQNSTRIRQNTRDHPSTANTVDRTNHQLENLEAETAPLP

O=[N+]([O-])c1ccc(OCCOc2ccccc2/C=N/n2cnnc2)cc1
IC50 [1]: 22.5 µM (inactive)

CC(=O)C1=C(c2cccc([N+](=O)[O-])c2)N(C(C)=O)n2c(C)nnc2S1
EC50 [2]: 45.2 µM (inactive) | EC50 (Hexokinase HKDC1): 8.32 µM (active) | EC50 [3]: 20.5 µM (inactive) | EC50 [4]: > 300 µM (inconclusive) | IC50 [5]: 8.72 µM (active) | EC50 (Beta-galactosidase): 15 µM (active) | CC50 (Vero): 24.4 µM (active) | EC50 (Hexokinase-1): 6.54 µM (active) | IC50 [6]: 4.27 µM (active) | EC50 [7]: 44.2 µM (active)

COc1ccc(C)cc1NC(=O)CCN1CCN(c2ccccc2F)CC1
EC50 (Mu-type opioid receptor): 92.5 µM (inactive) | EC50 [8]: 76.1 µM (inactive)

C[C@@H]1CN([C@@H](C)CO)C(=O)c2cc(NC(=O)CCCN(C)C)ccc2O[C@@H](C)CCCCO[C@H]1CN(C)C(=O)Nc1cccc2ccccc12
AC50 [9]: 74.8 µM (active)

Cc1ccc(S(=O)(=O)Nc2ccc3c(c2)CC(=O)N([C@@H](C)CO)C[C@H](C)[C@@H](CN(C)Cc2ccc(Cl)c(Cl)c2)O3)cc1
AC50 [10]: 3.89 µM (active) | AC50 [11]: 8.45 µM (active)

Cc1ccc(-c2nn(-c3ccccc3)cc2C=C2SC(=S)N(CCS(=O)(=O)O)C2=O)cc1
IC50 [12]: > 80 µM (inactive) | IC50 [13]: 4.93 µM (active) | IC50 [14]: 10.4 µM (active)

CCC(CC)c1nnc(NC(=O)c2cc(C(=O)OC)cc([N+](=O)[O-])c2)s1
IC50 [15]: 0.567 µM (active) | IC50 [16]: 8.62 µM (active) | IC50 [17]: 75.6 µM (inactive) | IC50 [18]: 2.28 µM (active)
